The results in this text go back to BindingDB's records for patent US20250296922 (Shanghai Wennai Therapeutics Co, 2025).

What all share (assay): Human Liver Microsomal CYP Inhibition Test
(In general: Liver microsomes are a subcellular fraction often used to study metabolism.)

One data set has as its target T1, Cytochrome P450 1A2 (Homo sapiens, UniProt P05177).
T1 sequence (P05177 whole entry): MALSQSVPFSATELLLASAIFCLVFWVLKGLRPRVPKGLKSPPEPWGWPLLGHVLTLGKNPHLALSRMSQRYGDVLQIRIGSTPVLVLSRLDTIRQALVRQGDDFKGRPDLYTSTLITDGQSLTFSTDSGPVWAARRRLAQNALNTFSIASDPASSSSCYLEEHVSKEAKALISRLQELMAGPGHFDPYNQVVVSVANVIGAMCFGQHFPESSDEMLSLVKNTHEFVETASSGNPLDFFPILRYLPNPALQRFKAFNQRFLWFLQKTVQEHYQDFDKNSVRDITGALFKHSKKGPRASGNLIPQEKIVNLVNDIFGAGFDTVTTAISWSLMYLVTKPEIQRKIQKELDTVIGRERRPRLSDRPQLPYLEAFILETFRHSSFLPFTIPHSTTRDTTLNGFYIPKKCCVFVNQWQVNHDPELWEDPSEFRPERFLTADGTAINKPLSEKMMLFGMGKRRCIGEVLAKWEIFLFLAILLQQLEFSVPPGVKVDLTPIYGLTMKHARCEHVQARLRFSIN
Here is the method: (§1) 3.5.1 the working solution preparation of the compound to be tested and the positive control (100×);3.5.2 Taking the liver microsomes from the −80° C. cryogenic freezer and melting on ice;3.5.3 Adding 20 μL of substrate solution to the appropriate wells and 20 μL of potassium phosphate buffer to the blank wells;3.5.4 Adding 2 μL of different concentrations of target compounds (final concentrations from 0.05 μM to 50 μM, 7 concentrations in total) or standard inhibitors to each well, with 2 μL of methanol solution in the non-inhibitor and blank wells;3.5.5 Adding 1.012 mL of liver microsomes to 78.988 mL of potassium phosphate buffer, then adding 158 μL of liver microsomes solution to all wells; preheating the well plate for 10 minutes in a 37° C. water bath;3.5.6 Weighing 129.1 mg NADPH (purchased from SyncoZymes Co. Ltd.) and adding to 15.0 mL of 33 Mm MgCl2 solution to give a 10 mM concentration, adding 20 μL to each well;3.5.7 Mixing and incubating the well plate in a 37° C. water bath for 10 minutes, then adding 400 μL of cold termination solution at the appropriate time point;3.5.8 Centrifuging the sample at 4000 rpm for 20 minutes to precipitate the protein. Transferring 200 μL of supernatant to 100 μL of HPLC water and shaking for 10 minutes. The samples were analyzed by LC/MS/MS.

The next data set deals with Cytochrome P450 2D6 (Homo sapiens, UniProt P10635). Here is the method: as §1
Cytochrome P450 2D6, sequence (P10635 whole entry): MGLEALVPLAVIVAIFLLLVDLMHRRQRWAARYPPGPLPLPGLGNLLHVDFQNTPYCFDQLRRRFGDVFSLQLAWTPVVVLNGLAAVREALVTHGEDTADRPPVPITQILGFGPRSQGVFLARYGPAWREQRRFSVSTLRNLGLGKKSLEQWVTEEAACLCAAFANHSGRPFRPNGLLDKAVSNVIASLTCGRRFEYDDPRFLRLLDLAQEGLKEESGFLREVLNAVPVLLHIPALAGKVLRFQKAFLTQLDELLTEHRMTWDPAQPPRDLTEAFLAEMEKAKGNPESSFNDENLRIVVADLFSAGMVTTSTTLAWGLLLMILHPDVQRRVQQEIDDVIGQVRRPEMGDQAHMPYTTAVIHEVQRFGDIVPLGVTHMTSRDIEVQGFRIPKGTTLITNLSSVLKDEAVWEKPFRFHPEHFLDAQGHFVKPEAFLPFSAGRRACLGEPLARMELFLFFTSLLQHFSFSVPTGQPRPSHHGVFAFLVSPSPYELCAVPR
A further data set addresses Cytochrome P450 2C9 (Homo sapiens, UniProt P11712). Here is the method: as §1
The next data set has as its target Cytochrome P450 2C19 (Homo sapiens, UniProt P33261). Here is the method:
as §1

Molecules are shown by their SMILES.

Cytochrome P450 2C19, sequence (P33261 whole entry): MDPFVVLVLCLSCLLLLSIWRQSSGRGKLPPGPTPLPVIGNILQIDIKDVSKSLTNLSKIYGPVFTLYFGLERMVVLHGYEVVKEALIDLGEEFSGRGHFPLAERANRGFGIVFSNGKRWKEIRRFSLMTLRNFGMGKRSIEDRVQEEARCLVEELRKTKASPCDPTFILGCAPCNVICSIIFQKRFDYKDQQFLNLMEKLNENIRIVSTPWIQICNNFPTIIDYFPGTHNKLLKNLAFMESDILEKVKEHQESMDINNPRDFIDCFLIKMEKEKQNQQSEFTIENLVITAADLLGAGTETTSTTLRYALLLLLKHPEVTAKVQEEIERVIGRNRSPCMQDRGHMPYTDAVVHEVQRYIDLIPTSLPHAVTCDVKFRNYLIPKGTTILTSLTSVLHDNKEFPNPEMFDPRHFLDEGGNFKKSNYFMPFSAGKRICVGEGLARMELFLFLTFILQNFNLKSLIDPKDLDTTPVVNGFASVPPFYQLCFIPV
Cytochrome P450 2C9, sequence (P11712 whole entry): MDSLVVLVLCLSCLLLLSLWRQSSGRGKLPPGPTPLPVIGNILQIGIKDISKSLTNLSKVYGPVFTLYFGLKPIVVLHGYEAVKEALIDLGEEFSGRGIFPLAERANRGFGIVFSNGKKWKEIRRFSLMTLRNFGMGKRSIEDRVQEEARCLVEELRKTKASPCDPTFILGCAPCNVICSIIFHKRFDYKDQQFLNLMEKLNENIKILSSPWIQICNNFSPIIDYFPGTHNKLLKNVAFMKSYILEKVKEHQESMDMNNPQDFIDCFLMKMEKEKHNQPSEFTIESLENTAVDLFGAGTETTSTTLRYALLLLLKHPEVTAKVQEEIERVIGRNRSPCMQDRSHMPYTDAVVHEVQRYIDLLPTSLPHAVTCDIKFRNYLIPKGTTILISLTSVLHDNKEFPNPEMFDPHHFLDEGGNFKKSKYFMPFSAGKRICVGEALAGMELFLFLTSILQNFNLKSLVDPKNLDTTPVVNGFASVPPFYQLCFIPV

Take `COc1c([C@H]2[C@H](C(=O)Nc3ccc[n+]([O-])c3)C[C@@](C)(C(F)(F)F)[C@H]2C)ccc(F)c1F` [US20250296922, Compound 7]: the IC50 was more than 50 µM on Cytochrome P450 1A2, more than 50 µM at Cytochrome P450 2D6, more than 50 µM on Cytochrome P450 2C9 and 2130 nM at Cytochrome P450 2C19.

The IC50 is the concentration at which inhibition is half-maximal.
